Data published in patent EP1090020B1, “2-(PURIN-9-YL)-TETRAHYDROFURAN-3,4-DIOL DERIVATIVES” (GLAXO GROUP LIMITED, priority 1998, dated 1999).

Assays:
Format in all cases: cell-based
[1] = target: T1, human adenosine receptor (adenosine 3) (Homo sapiens, UniProt P0DMS8); test: Agonist activity against adenosine 3 receptor subtype (CHO cells, cAMP response element/SPAP reporter); conditions: transfected CHO cells; effect on forskolin-enhanced cAMP reflected by SPAP; ratio to NECA
T1 sequence (P0DMS8 1-318): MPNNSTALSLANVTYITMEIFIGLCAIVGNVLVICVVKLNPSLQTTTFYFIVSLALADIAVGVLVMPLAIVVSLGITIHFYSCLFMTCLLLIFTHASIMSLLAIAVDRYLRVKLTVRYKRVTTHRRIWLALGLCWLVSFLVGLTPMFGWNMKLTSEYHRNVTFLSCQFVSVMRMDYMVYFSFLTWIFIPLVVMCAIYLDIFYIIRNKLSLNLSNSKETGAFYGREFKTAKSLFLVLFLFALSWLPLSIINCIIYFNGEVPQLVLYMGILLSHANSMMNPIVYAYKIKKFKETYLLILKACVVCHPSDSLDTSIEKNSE
Procedure: (§1) Compounds of the invention were tested for in vitro and in vivo biological activity in accordance with the following screens: • (1) Agonist activity against adenosine 2a, adenosine 1 and adenosine 3 receptor subtypes. Agonist selectivity of compounds against other human adenosine receptors was determined using Chinese hamster ovary (CHO) cells transfected with the gene for the relevant human adenosine receptor following a method based on that of Castanon and Spevak, 1994 . The CHO cells were also transfected with cyclic AMP response elements promoting the gene for secreted placental alkaline phosphatase (SPAP) (Wood, 1995). The effect of test compounds was determined by their effects on basal levels of CAMP (A2a) or on forskolin-enhanced cAMP (A1 and A3) as reflected by changes in levels of SPAP. EC50 values for compounds were then determined as a ratio to that of the non-selective agonist N-ethyl carboxamide adenosine (NECA).

[2] = target: T2, human adenosine receptor (adenosine 1) (Homo sapiens, UniProt P30542); test: Agonist activity against adenosine 1 receptor subtype (CHO cells, cAMP response element/SPAP reporter); conditions: transfected CHO cells; effect on forskolin-enhanced cAMP reflected by SPAP; ratio to NECA
T2 sequence (P30542 1-326): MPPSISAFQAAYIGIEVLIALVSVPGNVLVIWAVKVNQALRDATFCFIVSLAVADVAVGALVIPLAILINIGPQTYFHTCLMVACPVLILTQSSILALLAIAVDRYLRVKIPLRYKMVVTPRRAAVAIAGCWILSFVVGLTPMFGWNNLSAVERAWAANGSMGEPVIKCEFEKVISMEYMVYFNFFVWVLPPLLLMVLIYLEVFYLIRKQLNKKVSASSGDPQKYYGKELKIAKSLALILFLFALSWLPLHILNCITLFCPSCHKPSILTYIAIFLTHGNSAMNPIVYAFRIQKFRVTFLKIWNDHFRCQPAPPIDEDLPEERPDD
Procedure: as §1

[3] = target: human adenosine receptor (adenosine 2a) (Homo sapiens, UniProt P29274); test: Agonist activity against adenosine 2a receptor subtype (CHO cells, cAMP response element/SPAP reporter); conditions: transfected CHO cells; effect on basal levels of cAMP reflected by SPAP; ratio to NECA
Sequence of human adenosine receptor (adenosine 2a) (P29274 whole entry): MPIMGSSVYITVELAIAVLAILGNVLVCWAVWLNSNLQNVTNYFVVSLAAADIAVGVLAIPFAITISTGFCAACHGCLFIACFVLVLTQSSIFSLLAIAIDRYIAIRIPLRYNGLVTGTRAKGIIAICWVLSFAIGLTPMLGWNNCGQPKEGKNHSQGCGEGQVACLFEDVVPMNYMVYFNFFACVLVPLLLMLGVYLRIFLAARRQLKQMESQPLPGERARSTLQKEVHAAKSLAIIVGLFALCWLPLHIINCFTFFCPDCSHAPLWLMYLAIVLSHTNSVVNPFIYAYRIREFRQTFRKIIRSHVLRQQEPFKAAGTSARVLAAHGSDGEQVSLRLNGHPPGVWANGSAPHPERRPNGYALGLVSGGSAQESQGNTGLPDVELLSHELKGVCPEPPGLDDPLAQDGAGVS
Procedure: as §1

SMILES	A3; EC50 values as a ratio of that of NECA [1]	A1; EC50 values as a ratio of that of NECA [2]	A2a; EC50 values as a ratio of that of NECA [3]
N[C@H]1CC[C@H](Nc2nc(NCC(c3ccccc3)c3ccccc3)c3ncn([C@@H]4O[C@H](c5nnc[nH]5)[C@@H](O)[C@H]4O)c3n2)CC1.O=CO [Example 1, (2R,3R,4S,5R)-2-[2-(trans-4-Amino-cyclohexylamino)-6-(2,2-diphenyl-ethylamino)-purin-9-yl]-5-(4H-[1,2,4]triazol-3-yl)-tetrahydro-furan-3,4-diol formate]	> 353	1098	11.37
Cn1cnc(CCNc2nc(NCC(c3ccccc3)c3ccccc3)c3ncn([C@@H]4O[C@H](c5nnc[nH]5)[C@@H](O)[C@H]4O)c3n2)c1.O=CO [Example 2, (2R,3R,4S,5R)-2-{6-(2,2-Diphenyl-ethylamino)-2-[2-(1-methyl-1H-imidazol-4-yl)-ethylamino]-purin-9-yl}-5-(4H-[1,2,4]triazol-3-yl)-tetrahydro-furan-3,4-diol formate]	> 430	1003.4	1.08
O=CO.O[C@@H]1[C@H](O)[C@@H](c2nnc[nH]2)O[C@H]1n1cnc2c(NCC(c3ccccc3)c3ccccc3)nc(N[C@@H]3CCNC3)nc21 [Example 3, (2R,3R,4S,5R)-2-[6-(2,2-Diphenyl-ethylamino)-2-(pyrrolidin-3R-ylamino)-purin-9-yl]-5-(4H-[1,2,4]triazol-3-yl)-tetrahydro-furan-3,4-diol formate]	> 306	586.92	10.49
CC(C)[C@@H](CO)Nc1nc(NCC(c2ccccc2)c2ccccc2)c2ncn([C@@H]3O[C@H](c4nnc[nH]4)[C@@H](O)[C@H]3O)c2n1.O=CO [Example 4, (2R,3R,4S,5R)-2-[6-(2,2-Diphenyl-ethylamino)-2-(1S-hydroxymethyl-2-methyl-propylamino)-purin-9-yl]-5-(4H-[1,2,4]triazol-3-yl)-tetrahydro-furan-3,4-diol formate]	> 306	670.92	3.79
O=CO.O[C@@H]1[C@H](O)[C@@H](c2nnc[nH]2)O[C@H]1n1cnc2c(NCC(c3ccccc3)c3ccccc3)nc(NCCc3ccccn3)nc21 [Example 5, (2R,3R,4S,5R)-2-[6-(2,2-Diphenyl-ethylamino)-2-(2-pyridin-2-yl-ethylamino)-purin-9-yl]-5-(4H-[1,2,4]triazol-3-yl)-tetrahydro-furan-3,4-diol formate]	> 397	3329	19.3
O=CO.O[C@@H]1[C@H](O)[C@@H](c2nnc[nH]2)O[C@H]1n1cnc2c(NCC(c3ccccc3)c3ccccc3)nc(NC3CCCC3)nc21 [Example 6, (2R,3R,4S,5R)-2-[2-Cyclopentylamino-6-(2,2-diphenyl-ethylamino)-purin-9-yl]-5-(4H-[1,2,4]triazol-3-yl)-tetrahydro-furan-3,4-diol formate]	> 305	1627	16.96
N=C(N)NCCNc1nc(NCC(c2ccccc2)c2ccccc2)c2ncn([C@@H]3O[C@H](c4nnc[nH]4)[C@@H](O)[C@H]3O)c2n1.O=CO [Example 7, N-{2-[9-[3R,4S-Dihydroxy-5R-(4H-[1,2,4]triazol-3-yl)-tetrahydro-furan-2R-yl]-6-(2,2-diphenyl-ethylamino)-9H-purin-2-ylamino]-ethyl}-guanidine formate]	> 368	2577	19.01
O=CO.OC[C@H](Cc1ccccc1)Nc1nc(NCC(c2ccccc2)c2ccccc2)c2ncn([C@@H]3O[C@H](c4nnc[nH]4)[C@@H](O)[C@H]3O)c2n1 [Example 8, (2R,3R,4S,5R)-2-[6-(2,2-Diphenyl-ethylamino)-2-(1S-hydroxymethyl-2-phenyl-ethylamino)-purin-9-yl]-5-(4H-[1,2,4]triazol-3-yl)-tetrahydro-furan-3,4-diol formate]	> 326	280.97	26.74
O=CO.O[C@@H]1[C@H](O)[C@@H](c2nnc[nH]2)O[C@H]1n1cnc2c(NCC(c3ccccc3)c3ccccc3)nc(NCCN3CCCCC3)nc21 [Example 9, (2R,3R,4S,5R)-2-[6-(2,2-Diphenyl-ethylamino)-2-(2-piperidin-1-yl-ethylamino)-purin-9-yl]-5-(4H-[1,2,4]triazol-3-yl)-tetrahydro-furan-3,4-diol formate]	> 472	969.8	8.13
